“And” between values parts separate entries of the source, which are not always exact repeats. Equal entries are not always repeated.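 Grown in 96-well plates, cells were treated for 48 hours with each compound at five concentrations. Insufficient inhibition: endpoint recorded as highest concentration tested. GI50 marks 50% less growth. The concentration for full growth arrest is given as TGI.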
What follows are compounds tested on SNB-75 CNS (assay: growth of human tumour cells (NCI), 48 h).

COc1ccc(C[N+]23C(CC[C@H]2c2ccccc2)CC[C@H]3c2ccccc2)cc1 (stereo not given in full) and CCOC(=O)C1(C(=O)OCC)CN(CC)CN(c2ccccc2)C1 are within 1.5-fold of each other in TGI: 54.1 µM for the first, 39.3 µM for the second.

With CC(=O)OCC1OC(Nc2ncc(-c3ccc(C)cc3)s2)C(OC(C)=O)C(OC(C)=O)C1OC(C)=O (stereo not given) the TGI was over 100 µM.

These compounds were tested on SR leukemia (assay: growth of human tumour cells (NCI), 48 h).

Cc1ccc2c(c1CCCC(C)(C)O)C(=O)C(=O)C(C(C)C)=C2O and CCCCN1C=CN2c3nc4cc(C)c(C)cc4n3C(C(=O)OC)=C(C(=O)OC)C12 (stereo not given) cannot be ordered by TGI: over 100 µM for the first, over 100 µM for the second.

C[C@]12CCC(=O)C=C1CC[C@@H]1C2CC[C@]2(C)c3nn(-c4ccc(F)cc4)nc3CC12 (stereo not given in full) and COc1ccc2c(c1)CC[C@@H]1[C@@H]2CC[C@]2(C)C(=O)/C(=C/c3ccc(OC)c(OC)c3)C[C@@H]12 cannot be ordered by TGI: over 100 µM for the first, over 100 µM for the second.

Going from O=C1C(Cl)C(c2ccccc2)N1n1cnc2ccccc2c1=O (stereo not given) to C/C(=C1/CCCC2(N=NCC2c2ccccc2)C1=O)c1ccccc1 (stereo not given), the TGI falls from over 100 µM to 51.2 µM.

Cc1cn(C2CC(ON3C(=O)c4ccccc4C3=O)C(CO)O2)c(=O)[nH]c1=O (stereo not given) and CC(=O)OC1CC2c3cccc4c3C(CC2N(C)C1=O)CN4C(=O)c1ccccc1 (stereo not given) cannot be ordered by TGI: over 10 µM for the first, 94.8 µM for the second.

Compared with COC(=O)C(=C/c1ccc(OC)cc1)/C(C(=O)O)=C(/C)c1ccccc1, COc1ccc(C[N+]23C(CC[C@H]2c2ccccc2)CC[C@H]3c2ccccc2)cc1 (stereo not given in full) is lower in TGI: over 100 µM for the first, 41.4 µM for the second.

Going from CCOC(=O)C(N=Nc1ccc(S(N)(=O)=O)cc1)C(C)=O (stereo not given) to CCOC(=O)C1(C(=O)OCC)CN(CC)CN(c2ccccc2)C1, the TGI falls from over 100 µM to 47.7 µM.

Cc1ccc(C2CC(c3ccco3)=NN2c2ccccc2)o1 (stereo not given) and CCN1CCN(c2ccc(Nc3ccnc4ccc5nn(C)nc5c34)cc2)CC1 cannot be ordered by TGI: over 100 µM for the first, over 100 µM for the second.

First: O=[N+]([O-])c1ccc(-n2nnc(C3=NCCCN3)c2-c2ccc(Cl)cc2)cc1
Second: CCCCCC(C[N+]1(C)CCOCC1)C(=O)/C=C/c1ccccc1 (stereo not given)
The TGI of the first is higher: over 100 µM for the first, 39.1 µM for the second.

Work on COc1cc2c(cc1OC)C(O)[C@H](Br)C(C)(C)O2 (stereo not given in full) yielded a TGI of over 100 µM.

These compounds were tested on U251 CNS (assay: growth of human tumour cells (NCI), 48 h).

Cc1ccc2c(c1CCCC(C)(C)O)C(=O)C(=O)C(C(C)C)=C2O and CCCCN1C=CN2c3nc4cc(C)c(C)cc4n3C(C(=O)OC)=C(C(=O)OC)C12 (stereo not given) cannot be ordered by TGI: over 100 µM for the first, over 100 µM for the second.

First: CC(=O)c1sc2c(c1OC(=O)c1cccs1)c(=O)n(-c1ccccc1)c(=S)n2-c1ccccc1
Second: O=C1C(Cl)C(c2ccccc2)N1n1cnc2ccccc2c1=O (stereo not given)
The TGI of the first is lower: 26.7 µM for the first, over 100 µM for the second.

C[C@]12CCC(=O)C=C1CC[C@@H]1C2CC[C@]2(C)c3nn(-c4ccc(F)cc4)nc3CC12 (stereo not given in full) and COc1ccc2c(c1)CC[C@@H]1[C@@H]2CC[C@]2(C)C(=O)/C(=C/c3ccc(OC)c(OC)c3)C[C@@H]12 cannot be ordered by TGI: over 100 µM for the first, over 100 µM for the second.

CN(C)C(=O)OCOC(=O)N(C)C and CCOC(=O)C(N=Nc1ccc(S(N)(=O)=O)cc1)C(C)=O (stereo not given) cannot be ordered by TGI: over 100 µM for the first, over 100 µM for the second.

COC(=O)c1ccc(/C=C2\N=C(C)OC2=O)cc1 and COC(=O)C(=C/c1ccc(OC)cc1)/C(C(=O)O)=C(/C)c1ccccc1 cannot be ordered by TGI: over 100 µM for the first, over 100 µM for the second.

O=C1NC(=O)C(CCO)(c2ccccc2)C(=O)N1 and Cc1cn(C2CC(ON3C(=O)c4ccccc4C3=O)C(CO)O2)c(=O)[nH]c1=O (stereo not given) cannot be ordered by TGI: over 100 µM for the first, over 10 µM for the second.

Going from Cn1ccc(C(=O)NCCOCCNC(=O)c2ccn(C)c(=O)c2O)c(O)c1=O to CC(=O)OC1CC2c3cccc4c3C(CC2N(C)C1=O)CN4C(=O)c1ccccc1 (stereo not given), the TGI falls from over 100 µM to 53.3 µM.

N#CSc1nc[nH]c1C(N)=O and OCC1OC(n2cnc3c2NC=NC[C@H]3O)C(O)C1O (stereo not given in full) cannot be ordered by TGI: over 100 µM for the first, over 450 µM for the second.

Going from C=CCn1c(=O)n(CC=C)c(=O)n(CC=C)c1=O to CCCCCC(C[N+]1(C)CCOCC1)C(=O)/C=C/c1ccccc1 (stereo not given), the TGI falls from over 100 µM to 21.2 µM.

Going from COc1ccnc2c1C(=O)c1nc3ccccc3c3ccnc-2c13 to C/C(=C1/CCCC2(N=NCC2c2ccccc2)C1=O)c1ccccc1 (stereo not given), the TGI rises from 0.61 µM to 72 µM (120-fold).

Cc1ccc(C2CC(c3ccco3)=NN2c2ccccc2)o1 (stereo not given) and COc1ccc(C[N+]23C(CC[C@H]2c2ccccc2)CC[C@H]3c2ccccc2)cc1 (stereo not given in full) cannot be ordered by TGI: over 100 µM for the first, over 100 µM for the second.

First: CCN1CCN(c2ccc(Nc3ccnc4ccc5nn(C)nc5c34)cc2)CC1
Second: O=[N+]([O-])c1ccc(-n2nnc(C3=NCCCN3)c2-c2ccc(Cl)cc2)cc1
The TGI of the first is lower: 27 µM for the first, over 100 µM for the second.

Compared with CC1=CC(C2/C(=N/O)C=C(C)CC2(C)C)C(O)C(C)(C)C1 (stereo not given), COc1cc2c(cc1OC)C(O)[C@H](Br)C(C)(C)O2 (stereo not given in full) is higher in TGI: 29.6 µM for the first, over 100 µM for the second.

Going from c1cc(-c2ncc(-c3ccc4c(c3)CCCO4)o2)ccn1 to CC(=O)OCC1OC(Nc2ncc(-c3ccc(C)cc3)s2)C(OC(C)=O)C(OC(C)=O)C1OC(C)=O (stereo not given), the TGI rises from 66.5 µM to over 100 µM.

Compound C=C1C(=O)O[C@H]2[C@H]1[C@@H](OC(=O)C=C(C)C)CC1=C[C@@H](C[C@@]3(C)O[C@@H]23)OC1=O has a GI50 of 24 µM.

With C=C1C(=O)O[C@H]2[C@H]1[C@@H](OC(=O)C=C(C)C)CC1=C[C@@H](C[C@@]3(C)O[C@@H]23)OC1=O the TGI was 32.2 µM and 42.5 µM.

These compounds were tested on UACC-62 melanoma (assay: growth of human tumour cells (NCI), 48 h).

First: CC(=O)c1sc2c(c1OC(=O)c1cccs1)c(=O)n(-c1ccccc1)c(=S)n2-c1ccccc1
Second: O=C1C(Cl)C(c2ccccc2)N1n1cnc2ccccc2c1=O (stereo not given)
The TGI of the first is lower: 37.9 µM for the first, over 100 µM for the second.

C[C@]12CCC(=O)C=C1CC[C@@H]1C2CC[C@]2(C)c3nn(-c4ccc(F)cc4)nc3CC12 (stereo not given in full) and COc1ccc2c(c1)CC[C@@H]1[C@@H]2CC[C@]2(C)C(=O)/C(=C/c3ccc(OC)c(OC)c3)C[C@@H]12 cannot be ordered by TGI: over 100 µM for the first, over 100 µM for the second.

Going from CN(C)C(=O)OCOC(=O)N(C)C to CCOC(=O)C1(C(=O)OCC)CN(CC)CN(c2ccccc2)C1, the TGI falls from over 100 µM to 68.5 µM.

COC(=O)c1ccc(/C=C2\N=C(C)OC2=O)cc1 and COC(=O)C(=C/c1ccc(OC)cc1)/C(C(=O)O)=C(/C)c1ccccc1 cannot be ordered by TGI: over 100 µM for the first, over 100 µM for the second.

O=C1NC(=O)C(CCO)(c2ccccc2)C(=O)N1 and Cc1cn(C2CC(ON3C(=O)c4ccccc4C3=O)C(CO)O2)c(=O)[nH]c1=O (stereo not given) cannot be ordered by TGI: over 100 µM for the first, over 10 µM for the second.

Cn1ccc(C(=O)NCCOCCNC(=O)c2ccn(C)c(=O)c2O)c(O)c1=O and CCCCN1C=CN2c3nc4cc(C)c(C)cc4n3C(C(=O)OC)=C(C(=O)OC)C12 (stereo not given) cannot be ordered by TGI: over 100 µM for the first, over 100 µM for the second.

N#CSc1nc[nH]c1C(N)=O and CCOC(=O)C(N=Nc1ccc(S(N)(=O)=O)cc1)C(C)=O (stereo not given) cannot be ordered by TGI: over 100 µM for the first, over 100 µM for the second.

First: C=CCn1c(=O)n(CC=C)c(=O)n(CC=C)c1=O
Second: CC(=O)OC1CC2c3cccc4c3C(CC2N(C)C1=O)CN4C(=O)c1ccccc1 (stereo not given)
The TGI of the first is higher: over 100 µM for the first, 50.3 µM for the second.

Compared with COc1ccnc2c1C(=O)c1nc3ccccc3c3ccnc-2c13, C/C(=C1/CCCC2(N=NCC2c2ccccc2)C1=O)c1ccccc1 (stereo not given) is 95-fold higher in TGI: 0.504 µM for the first, 47.7 µM for the second.

First: Cc1ccc(C2CC(c3ccco3)=NN2c2ccccc2)o1 (stereo not given)
Second: c1cc(-c2ncc(-c3ccc4c(c3)CCCO4)o2)ccn1
The TGI of the first is higher: over 100 µM for the first, 66.3 µM for the second.

Compared with CCN1CCN(c2ccc(Nc3ccnc4ccc5nn(C)nc5c34)cc2)CC1, O=[N+]([O-])c1ccc(-n2nnc(C3=NCCCN3)c2-c2ccc(Cl)cc2)cc1 is higher in TGI: 30.8 µM for the first, over 100 µM for the second.

Compared with CC1=CC(C2/C(=N/O)C=C(C)CC2(C)C)C(O)C(C)(C)C1 (stereo not given), COc1cc2c(cc1OC)C(O)[C@H](Br)C(C)(C)O2 (stereo not given in full) is higher in TGI: 29.4 µM for the first, over 100 µM for the second.

OCC1OC(n2cnc3c2NC=NC[C@H]3O)C(O)C1O (stereo not given in full) and CC(=O)OCC1OC(Nc2ncc(-c3ccc(C)cc3)s2)C(OC(C)=O)C(OC(C)=O)C1OC(C)=O (stereo not given) cannot be ordered by TGI: over 450 µM for the first, over 77.2 µM for the second.

Compared with CNC(=S)N/N=C(C)\C(=N/NC(=S)NC)c1ccccc1, CCCCCC(C[N+]1(C)CCOCC1)C(=O)/C=C/c1ccccc1 (stereo not given) is lower in TGI: over 100 µM for the first, 26.6 µM for the second.

For C=C1C(=O)O[C@H]2[C@H]1[C@@H](OC(=O)C=C(C)C)CC1=C[C@@H](C[C@@]3(C)O[C@@H]23)OC1=O, the GI50 was 11.3 µM.

In the case of C=C1C(=O)O[C@H]2[C@H]1[C@@H](OC(=O)C=C(C)C)CC1=C[C@@H](C[C@@]3(C)O[C@@H]23)OC1=O, the TGI is reported as 12.8 µM and 31.6 µM.

From PubChem BioAssay (NCI)
